Numbers after ± are expanded uncertainties.
Assay: xn = mol fraction of the nth substance listed
Settings: Liquid, Vibrating tube method

CCCCCCCCCC [decane] + CCCCCCC
Settings | mass density [kg/m3]
323.15 K, 7000 kPa, x2 = 0.0531 | 711.49 ± 0.44
323.15 K, 7000 kPa, x2 = 0.2594 | 703.89 ± 0.44
323.15 K, 8000 kPa, x2 = 0.0531 | 712.35 ± 0.44
323.15 K, 8000 kPa, x2 = 0.2594 | 704.79 ± 0.45
323.15 K, 9000 kPa, x2 = 0.0531 | 713.2 ± 0.45
323.15 K, 9000 kPa, x2 = 0.2594 | 705.68 ± 0.45
323.15 K, 10000 kPa, x2 = 0.0531 | 714.07 ± 0.45
323.15 K, 10000 kPa, x2 = 0.2594 | 706.56 ± 0.46
323.15 K, 10990 kPa, x2 = 0.0531 | 714.9 ± 0.46
323.15 K, 10990 kPa, x2 = 0.2594 | 707.43 ± 0.46
323.15 K, 12000 kPa, x2 = 0.0531 | 715.73 ± 0.46
323.15 K, 12000 kPa, x2 = 0.2594 | 708.29 ± 0.47
323.15 K, 13000 kPa, x2 = 0.0531 | 716.54 ± 0.47
323.15 K, 13000 kPa, x2 = 0.2594 | 709.14 ± 0.47
323.15 K, 14000 kPa, x2 = 0.0531 | 717.35 ± 0.47
323.15 K, 14000 kPa, x2 = 0.2594 | 709.98 ± 0.48
323.15 K, 15000 kPa, x2 = 0.0531 | 718.14 ± 0.48
323.15 K, 15000 kPa, x2 = 0.2594 | 710.81 ± 0.49
323.15 K, 16000 kPa, x2 = 0.0531 | 718.92 ± 0.48
323.15 K, 16000 kPa, x2 = 0.2594 | 711.62 ± 0.49
323.15 K, 17000 kPa, x2 = 0.0531 | 719.7 ± 0.49
323.15 K, 17000 kPa, x2 = 0.2594 | 712.43 ± 0.5
323.15 K, 18000 kPa, x2 = 0.0531 | 720.46 ± 0.5
323.15 K, 18000 kPa, x2 = 0.2594 | 713.25 ± 0.5
323.15 K, 19000 kPa, x2 = 0.0531 | 721.21 ± 0.5
323.15 K, 19000 kPa, x2 = 0.2594 | 714.01 ± 0.51
323.15 K, 20000 kPa, x2 = 0.0531 | 721.96 ± 0.51
323.15 K, 20000 kPa, x2 = 0.2594 | 714.78 ± 0.52
323.15 K, 21000 kPa, x2 = 0.0531 | 722.7 ± 0.51
323.15 K, 21000 kPa, x2 = 0.2594 | 715.55 ± 0.52
323.15 K, 22000 kPa, x2 = 0.0531 | 723.41 ± 0.52
323.15 K, 22000 kPa, x2 = 0.2594 | 716.3 ± 0.53
323.15 K, 23000 kPa, x2 = 0.0531 | 724.12 ± 0.53
323.15 K, 23000 kPa, x2 = 0.2594 | 716.98 ± 0.53
323.15 K, 24000 kPa, x2 = 0.0531 | 724.82 ± 0.53
323.15 K, 24000 kPa, x2 = 0.2594 | 717.65 ± 0.54
323.15 K, 25000 kPa, x2 = 0.0531 | 725.51 ± 0.54
323.15 K, 25000 kPa, x2 = 0.2594 | 718.3 ± 0.55
323.16 K, 1000 kPa, x2 = 0.777 | 673.59 ± 0.43
323.16 K, 2000 kPa, x2 = 0.777 | 674.58 ± 0.43
323.16 K, 3000 kPa, x2 = 0.777 | 675.56 ± 0.44
323.16 K, 4000 kPa, x2 = 0.777 | 676.57 ± 0.44
323.16 K, 5000 kPa, x2 = 0.777 | 677.56 ± 0.45
323.16 K, 6000 kPa, x2 = 0.777 | 678.57 ± 0.45
323.16 K, 7000 kPa, x2 = 0.777 | 679.58 ± 0.46
323.16 K, 8000 kPa, x2 = 0.777 | 680.57 ± 0.46
323.16 K, 9000 kPa, x2 = 0.777 | 681.56 ± 0.47
323.16 K, 10000 kPa, x2 = 0.777 | 682.54 ± 0.48
323.16 K, 10990 kPa, x2 = 0.777 | 683.5 ± 0.48
323.16 K, 12000 kPa, x2 = 0.777 | 684.45 ± 0.49
323.16 K, 13000 kPa, x2 = 0.777 | 685.39 ± 0.5
323.16 K, 14000 kPa, x2 = 0.777 | 686.31 ± 0.5
323.16 K, 15000 kPa, x2 = 0.777 | 687.21 ± 0.51
323.16 K, 16000 kPa, x2 = 0.777 | 688.1 ± 0.52
323.16 K, 17000 kPa, x2 = 0.777 | 688.99 ± 0.52
323.16 K, 18000 kPa, x2 = 0.777 | 689.87 ± 0.53
323.16 K, 19000 kPa, x2 = 0.777 | 690.73 ± 0.54
323.16 K, 20000 kPa, x2 = 0.777 | 691.58 ± 0.54
323.16 K, 21000 kPa, x2 = 0.777 | 692.41 ± 0.55
323.16 K, 22000 kPa, x2 = 0.777 | 693.22 ± 0.56
323.16 K, 23000 kPa, x2 = 0.777 | 693.96 ± 0.57
323.16 K, 24000 kPa, x2 = 0.777 | 694.7 ± 0.57
323.16 K, 25000 kPa, x2 = 0.777 | 695.42 ± 0.58
333.11 K, 1000 kPa, x2 = 0.5219 | 679.05 ± 0.42
333.11 K, 2000 kPa, x2 = 0.5219 | 680.06 ± 0.43
333.11 K, 3000 kPa, x2 = 0.5219 | 681.02 ± 0.43
333.11 K, 4000 kPa, x2 = 0.5219 | 682.02 ± 0.44
333.11 K, 5000 kPa, x2 = 0.5219 | 683.02 ± 0.44
333.11 K, 6000 kPa, x2 = 0.5219 | 684.02 ± 0.45
333.11 K, 7000 kPa, x2 = 0.5219 | 685.02 ± 0.45
333.11 K, 8000 kPa, x2 = 0.5219 | 686.03 ± 0.46
333.11 K, 9000 kPa, x2 = 0.5219 | 687.04 ± 0.46
333.11 K, 10000 kPa, x2 = 0.5219 | 688.03 ± 0.47
333.11 K, 10990 kPa, x2 = 0.5219 | 689.01 ± 0.48
333.11 K, 12000 kPa, x2 = 0.5219 | 689.97 ± 0.48
333.11 K, 13000 kPa, x2 = 0.5219 | 690.92 ± 0.49
333.11 K, 14000 kPa, x2 = 0.5219 | 691.85 ± 0.49
333.11 K, 15000 kPa, x2 = 0.5219 | 692.77 ± 0.5
333.11 K, 16000 kPa, x2 = 0.5219 | 693.68 ± 0.51
333.11 K, 17000 kPa, x2 = 0.5219 | 694.58 ± 0.51
333.11 K, 18000 kPa, x2 = 0.5219 | 695.49 ± 0.52
333.11 K, 19000 kPa, x2 = 0.5219 | 696.33 ± 0.53
333.11 K, 20000 kPa, x2 = 0.5219 | 697.15 ± 0.53
333.11 K, 21000 kPa, x2 = 0.5219 | 697.97 ± 0.54
333.11 K, 22000 kPa, x2 = 0.5219 | 698.76 ± 0.55
333.11 K, 23000 kPa, x2 = 0.5219 | 699.54 ± 0.55
333.11 K, 24000 kPa, x2 = 0.5219 | 700.3 ± 0.56
333.11 K, 25000 kPa, x2 = 0.5219 | 701.04 ± 0.57
333.12 K, 1000 kPa, x2 = 0.0531 | 698.2 ± 0.41
333.12 K, 1000 kPa, x2 = 0.777 | 665.15 ± 0.43
333.12 K, 2000 kPa, x2 = 0.0531 | 699.22 ± 0.42
333.12 K, 2000 kPa, x2 = 0.777 | 666.23 ± 0.43
333.12 K, 3000 kPa, x2 = 0.0531 | 700.22 ± 0.42
333.12 K, 3000 kPa, x2 = 0.777 | 667.33 ± 0.44

Reference: the NIST ThermoML archive (doi:10.1016/j.jct.2011.08.016)
